Experimental data reported in ChEMBL document CHEMBL1201862, “PubChem BioAssay data set” (2004).
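These data come from cells grown in 96-well plates and exposed to compound for 48 hours at five concentrations. Abbreviation: GI50, concentration required for 50% inhibition of growth.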 The source made the active and inactive calls. Rule as the data show it: active = GI50 up to about 1.1 µM and inactive = higher.

What was measured:
Test in all cases: inhibition of tumour cell growth, NCI panel, 48 h
MDA-N = tested on: MDA-N
M14 = tested on: M14
CAKI-1 = tested on: CAKI-1
CCRF-CEM = tested on: CCRF-CEM
NCI-H23 = tested on: NCI-H23
MOLT-4 = tested on: MOLT-4
HT-29 = tested on: HT-29
SK-MEL-2 = tested on: SK-MEL-2
786-0 = tested on: 786-0
RXF 393 = tested on: RXF 393
SNB-19 = tested on: SNB-19
TK-10 = tested on: TK-10
A498 = tested on: A498
SW-620 = tested on: SW-620
UO-31 = tested on: UO-31
SNB-75 = tested on: SNB-75
DU-145 = tested on: DU-145
HCC 2998 = tested on: HCC 2998
K562 = tested on: K562
PC-3 = tested on: PC-3
NCI-H226 = tested on: NCI-H226
MCF7 = tested on: MCF7
BT-549 = tested on: BT-549
SK-MEL-5 = tested on: SK-MEL-5
A549 = tested on: A549
MDA-MB-435 = tested on: MDA-MB-435
HOP-92 = tested on: HOP-92
LOX IMVI = tested on: LOX IMVI
IGROV-1 = tested on: IGROV-1
OVCAR-5 = tested on: OVCAR-5
SF-268 = tested on: SF-268
NCI/ADR-RES = tested on: NCI/ADR-RES
MDA-MB-231 = tested on: MDA-MB-231
UACC-257 = tested on: UACC-257
COLO 205 = tested on: COLO 205
HCT-15 = tested on: HCT-15
NCI-H522 = tested on: NCI-H522
SN12C = tested on: SN12C
SK-OV-3 = tested on: SK-OV-3
SR = tested on: SR
SF-295 = tested on: SF-295
UACC-62 = tested on: UACC-62
SK-MEL-28 = tested on: SK-MEL-28
RPMI-8226 = tested on: RPMI-8226
EKVX = tested on: EKVX
HCT-116 = tested on: HCT-116
NCI-H460 = tested on: NCI-H460
T47D = tested on: T47D
HL-60 = tested on: HL-60
U-251 = tested on: U-251
KM12 = tested on: KM12
OVCAR-3 = tested on: OVCAR-3
Malme-3M = tested on: Malme-3M
OVCAR-4 = tested on: OVCAR-4
HOP-62 = tested on: HOP-62
Hs-578T = tested on: Hs-578T
OVCAR-8 = tested on: OVCAR-8
ACHN = tested on: ACHN
SF-539 = tested on: SF-539

NS(=O)(=O)c1ccc(N=C2C(=O)Nc3ccccc32)cc1
GI50 (MDA-N): > 100 µM (inactive)
GI50 (M14): > 100 µM (inactive)
GI50 (CAKI-1): > 100 µM (inactive)
GI50 (CCRF-CEM): 55.8 µM (inactive)
GI50 (NCI-H23): > 100 µM (inactive)
GI50 (MOLT-4): > 100 µM (inactive)
GI50 (HT-29): > 100 µM (inactive)
GI50 (SK-MEL-2): > 100 µM (inactive)
GI50 (786-0): > 100 µM (inactive)
GI50 (RXF 393): > 100 µM (inactive)
GI50 (SNB-19): > 100 µM (inactive)
GI50 (TK-10): > 100 µM (inactive)
GI50 (A498): > 100 µM (inactive)
GI50 (SW-620): > 100 µM (inactive)
GI50 (UO-31): > 100 µM (inactive)
GI50 (SNB-75): > 100 µM (inactive)
GI50 (DU-145): > 100 µM (inactive)
GI50 (HCC 2998): > 100 µM (inactive)
GI50 (K562): 65.8 µM (inactive)
GI50 (PC-3): > 100 µM (inactive)
GI50 (NCI-H226): > 100 µM (inactive)
GI50 (MCF7): 90.2 µM (inactive)
GI50 (BT-549): > 100 µM (inactive)
GI50 (SK-MEL-5): 36.8 µM (inactive)
GI50 (A549): > 100 µM (inactive)
GI50 (MDA-MB-435): 24.5 µM (inactive)
GI50 (HOP-92): > 100 µM (inactive)
GI50 (LOX IMVI): 57.7 µM (inactive)
GI50 (IGROV-1): > 100 µM (inactive)
GI50 (OVCAR-5): > 100 µM (inactive)
GI50 (SF-268): > 100 µM (inactive)
GI50 (NCI/ADR-RES): > 100 µM (inactive)
GI50 (MDA-MB-231): > 100 µM (inactive)
GI50 (UACC-257): > 100 µM (inactive)
GI50 (COLO 205): 13.1 µM (inactive)
GI50 (HCT-15): > 100 µM
GI50 (NCI-H522): 70.8 µM (inactive)
GI50 (SN12C): > 100 µM (inactive)
GI50 (SK-OV-3): > 100 µM (inactive)
GI50 (SR): 67.8 µM (inactive)
GI50 (SF-295): > 100 µM (inactive)
GI50 (UACC-62): > 100 µM (inactive)
GI50 (SK-MEL-28): > 100 µM (inactive)
GI50 (RPMI-8226): > 100 µM (inactive)
GI50 (EKVX): > 100 µM (inactive)
GI50 (HCT-116): > 100 µM (inactive)
GI50 (NCI-H460): > 100 µM (inactive)
GI50 (T47D): > 100 µM (inactive)
GI50 (HL-60): > 100 µM (inactive)
GI50 (U-251): > 100 µM (inactive)
GI50 (KM12): > 100 µM (inactive)
GI50 (OVCAR-3): > 100 µM (inactive)
GI50 (Malme-3M): > 100 µM (inactive)
GI50 (OVCAR-4): > 100 µM (inactive)
GI50 (HOP-62): > 100 µM (inactive)
GI50 (Hs-578T): > 100 µM (inactive)
GI50 (OVCAR-8): > 100 µM (inactive)
GI50 (ACHN): > 100 µM (inactive)

CN(C)Cc1cc(/N=N/c2ccc(Cl)c(Cl)c2)ccc1O
GI50 (MDA-N): 11.4 µM (inactive)
GI50 (M14): 16 µM (inactive)
GI50 (CAKI-1): 12.6 µM (inactive)
GI50 (CCRF-CEM): 4.43 µM (inactive)
GI50 (NCI-H23): 13.6 µM (inactive)
GI50 (MOLT-4): 6.21 µM (inactive)
GI50 (HT-29): 6.53 µM (inactive)
GI50 (786-0): 11.5 µM (inactive)
GI50 (RXF 393): 1.48 µM (inactive)
GI50 (SNB-19): 13.6 µM (inactive)
GI50 (TK-10): 10.9 µM (inactive)
GI50 (A498): 11.1 µM (inactive)
GI50 (SW-620): 11.1 µM (inactive)
GI50 (UO-31): 2.49 µM (inactive)
GI50 (SNB-75): 7.13 µM (inactive)
GI50 (SF-539): 18.5 µM (inactive)
GI50 (DU-145): 4 µM (inactive)
GI50 (HCC 2998): 12.1 µM (inactive)
GI50 (K562): 2.61 µM (inactive)
GI50 (PC-3): 11.6 µM (inactive)
GI50 (NCI-H226): 17.9 µM (inactive)
GI50 (MCF7): 4.46 µM (inactive)
GI50 (BT-549): 13.8 µM (inactive)
GI50 (SK-MEL-5): 12.4 µM (inactive)
GI50 (A549): 13.9 µM (inactive)
GI50 (MDA-MB-435): 11.7 µM (inactive)
GI50 (HOP-92): 3.3 µM (inactive)
GI50 (LOX IMVI): 3.4 µM (inactive)
GI50 (IGROV-1): 3.4 µM (inactive)
GI50 (SF-268): 3.61 µM (inactive)
GI50 (NCI/ADR-RES): 7.46 µM (inactive)
GI50 (MDA-MB-231): 5.15 µM (inactive)
GI50 (UACC-257): 16.8 µM (inactive)
GI50 (COLO 205): 2.84 µM (inactive)
GI50 (HCT-15): 6.5 µM
GI50 (NCI-H522): 5.41 µM (inactive)
GI50 (SN12C): 14.7 µM (inactive)
GI50 (SR): 7.45 µM (inactive)
GI50 (SF-295): 17.8 µM (inactive)
GI50 (UACC-62): 5.96 µM (inactive)
GI50 (SK-MEL-28): 13.7 µM (inactive)
GI50 (RPMI-8226): 14.3 µM (inactive)
GI50 (EKVX): 12.6 µM (inactive)
GI50 (HCT-116): 14.4 µM (inactive)
GI50 (NCI-H460): 6.35 µM (inactive)
GI50 (T47D): 7 µM (inactive)
GI50 (HL-60): 2.52 µM (inactive)
GI50 (U-251): 11.5 µM (inactive)
GI50 (KM12): 4.35 µM (inactive)
GI50 (OVCAR-3): 6.34 µM (inactive)
GI50 (Malme-3M): 15.6 µM (inactive)
GI50 (OVCAR-4): 7.28 µM (inactive)
GI50 (HOP-62): 2.72 µM (inactive)
GI50 (Hs-578T): 6.03 µM (inactive)
GI50 (OVCAR-8): 12.9 µM (inactive)
GI50 (ACHN): 4.44 µM (inactive)
